# Values joined by “and” are separate entries in the source; they are usually repeats but may differ in a detail not shown here. Equal values may be shown once.
# System: blood-brain barrier
# Assay: Histological examination of blood-brain barrier leakage of Evans blue dye after external heating
# Type: in vivo, mice
# Conditions: one line per animal
# Excerpt: Staining of the blood-brain barrier is a traditional method for evaluating blood-brain barrier leakage. Evans Blue dye, an exogenous tracer, is used to assess the integrity of the blood-brain barrier following a hyperthermic disruption. The dye molecules are able to easily diffuse through the fenestrated endothelial cells of all capillaries except those of the brain due to a functional blood-brain barrier. However, once the blood-brain barrier is compromised, Evans blue enters the brain and it fluoresces with excitation peaks at 470 and 540 nm and an emission peak at 680 nm. Histological staining techniques can therefore reflect the extent of blood-brain barrier leakage by studying the intensity of Evans blue dye in the brain.
# Phase ii. The purpose of this part of the experiment was to examine the feasibility of hyperthermic disruption of the blood-brain barrier as well as its recovery period from thermal damage using Evans blue staining technique. Here, nine mice, each 6-8 weeks of age, were randomly divided into three identical groups. In contrast to the previous part, no holes were drilled into the exposed surface of the skull of these animals. In order to correlate temperature patterns with stains left from the Evans blue dye, the heating parameters for all groups were kept the same as was described in the first part of this experiment. […]
compound,measurement,setting,value
Cc1cc(-c2ccc(/N=N/c3ccc4c(S(=O)(=O)O)cc(S(=O)(=O)O)c(N)c4c3O)c(C)c2)ccc1/N=N/c1ccc2c(S(=O)(=O)O)cc(S(=O)(=O)O)c(N)c2c1O [Evans blue],Diameter of BBB leakage of Evans blue (mm),"Group I Hyperthermic Disruption, 30 min heating near Bregma, sacrificed one hour after dye",0 mm and 4.22 mm and 2.46 mm
same,Diameter of BBB leakage of Evans blue (mm),"Group II Recovery from Hyperthermia, dye injected 2 hours after 30 min thermal treatment",0 mm and 0.62 mm and 1.98 mm

# Source: patent US20150126964A1, “DRUG DELIVERY ACROSS THE BLOOD-BRAIN BARRIER USING MAGNETICALLY HEATABLE ENTITIES” (CORPORATION DE L'ECOLE POLYTECHNIQUE DE MONTREAL, priority 2012, published 2015)
